Source: the supplement of paper PMC11061612

How the values were obtained:
[1] = test system: NB(TU)1-10 (Neuroblastoma); assay: Bliss excess, mean over the matrix (fraction); higher = more synergy
Summary of the method: (§1)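 After 24 hours at 37°C and 5% CO2 in 1536-well plates, cells in DMEM/F12 or RPMI plus 10% FBS received two-drug dose matrices for 72 hours. Viability came from CellTiter-Glo 2.0 luminescence and was scaled as inhibition, anchored at 0 by vehicle wells and at 1 by blank wells. Combination Emax is taken as the second-highest inhibition in the matrix, and Bliss excess as the observed combination effect less EA + EB − EA·EB, with EA and EB the single-agent effects.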

[2] = test system: BB49-HNC (Head and Neck Carcinoma); assay: as above
Summary of the method: as §1

[3] = test system: NCI-H211 (Small Cell Lung Carcinoma); assay: as above
Summary of the method: as §1

[4] = test system: NB(TU)1-10 (Neuroblastoma); assay: combination Emax (second highest fraction inhibited in the dose matrix, 72 h); higher = more inhibition; extreme values may be limits of the assay
Summary of the method: as §1

[5] = test system: BB49-HNC (Head and Neck Carcinoma); assay: as above
Summary of the method: as §1

[6] = test system: NCI-H211 (Small Cell Lung Carcinoma); assay: as above
Summary of the method: as §1

[7] = test system: JiyoyeP-2003 (Burkitt's Lymphoma); assay: as above
Summary of the method: as §1

NCI-H2369 (Mesothelioma) = assay: as above
Summary of the method: as §1
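For Bliss excess, mean over the matrix in this document: after 72 h of two-drug dosing.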

SMILES | Bliss excess [1] | Bliss excess [2] | Bliss excess [3] | combination Emax [4] | combination Emax [5] | combination Emax [6] | combination Emax [7] | combination Emax (NCI-H2369 (Mesothelioma))
CN(C)CCCOc1ccc(-c2ccc3ncc4c(c3c2)n(C2CCOCC2)c(=O)n4C)cn1 [AZD0156] + O=C(c1cc(Cc2n[nH]c(=O)c3ccccc23)ccc1F)N1CCN(C(=O)C2CC2)CC1 [Olaparib] (first compound max 3 µM, partner max 3 µM) | -0.037 | 0.165 | 0.0397 | 0.356 | 0.598 | 0.598 | 0.311 | 0.181
Cc1cc2ncnn2cc1Nc1ncc2c(n1)n(C1CCOCC1)c(=O)n2C [AZD7648] + C[C@@H]1COCCN1C2=NC(=NC(=C2)C3(CC3)[S@](=N)(=O)C)C4=C5C=CNC5=NC=C4 [AZD6738] (first compound max 10 µM, 7x7, partner max 10 µM) | -0.0214 | – | – | 0.713 | – | – | 0.929 | 0.25
CCc1c2c(nc3ccc(O)cc13)-c1cc3c(c(=O)n1C2)COC(=O)[C@]3(O)CC [SN-38] + CN(C)CCCOc1ccc(-c2ccc3ncc4c(c3c2)n(C2CCOCC2)c(=O)n4C)cn1 [AZD0156] (first compound max 0.3 µM, 7x7, partner max 1 µM) | -0.0787 | – | – | 0.805 | – | – | 0.975 | 0.32
C=CCn1c(=O)c2cnc(Nc3ccc(N4CCN(C)CC4)cc3)nc2n1-c1cccc(C(C)(C)O)n1 [AZD1775] + C1CN(CCC1(C(=O)N[C@@H](CCO)C2=CC=C(C=C2)Cl)N)C3=NC=NC4=C3C=CN4 [Capivasertib] (first compound max 3 µM, partner max 3 µM) | -0.0584 | -0.0204 | -0.0643 | 0.583 | 0.936 | 0.901 | 0.931 | 0.3
COc1cccc(OCCCN)c1-c1cc(Nc2cnc(C#N)cn2)n[nH]1 [Prexasertib] + Cc1cc2ncnn2cc1Nc1ncc2c(n1)n(C1CCOCC1)c(=O)n2C [AZD7648] (first compound max 1 µM, 7x7, partner max 10 µM) | -0.0498 | – | – | 0.94 | – | – | 0.984 | 0.253
CN(C)CCCOc1ccc(-c2ccc3ncc4c(c3c2)n(C2CCOCC2)c(=O)n4C)cn1 [AZD0156] + C=CCn1c(=O)c2cnc(Nc3ccc(N4CCN(C)CC4)cc3)nc2n1-c1cccc(C(C)(C)O)n1 [AZD1775] (first compound max 1 µM, partner max 1 µM) | 0.014 | – | – | 0.857 | – | – | 0.937 | 0.207
COc1cccc(OCCCN)c1-c1cc(Nc2cnc(C#N)cn2)n[nH]1 [Prexasertib] + O=C(c1cc(Cc2n[nH]c(=O)c3ccccc23)ccc1F)N1CCN(C(=O)C2CC2)CC1 [Olaparib] (first compound max 1 µM, 7x7, partner max 10 µM) | -0.0874 | – | – | 0.885 | – | – | 0.986 | 0.283
Cc1cc2ncnn2cc1Nc1ncc2c(n1)n(C1CCOCC1)c(=O)n2C [AZD7648] + CN(C)CCCOc1ccc(-c2ccc3ncc4c(c3c2)n(C2CCOCC2)c(=O)n4C)cn1 [AZD0156] (first compound max 10 µM, 7x7, partner max 1 µM) | 0.0361 | – | – | 0.322 | – | – | 0.394 | 0.198
C=CCn1c(=O)c2cnc(Nc3ccc(N4CCN(C)CC4)cc3)nc2n1-c1cccc(C(C)(C)O)n1 [AZD1775] + O=C(c1cc(Cc2n[nH]c(=O)c3ccccc23)ccc1F)N1CCN(C(=O)C2CC2)CC1 [Olaparib] (first compound max 1 µM, partner max 10 µM) | 0.0461 | – | – | 0.815 | – | – | 0.915 | 0.258
COc1cccc2c1C(=O)c1c(O)c3c(c(O)c1C2=O)C[C@@](O)(C(=O)CO)C[C@@H]3O[C@H]1C[C@H](N)[C@H](O)[C@H](C)O1 [Doxorubicin] + Cc1cc2ncnn2cc1Nc1ncc2c(n1)n(C1CCOCC1)c(=O)n2C [AZD7648] (first compound max 1 µM, 7x7, partner max 10 µM) | 0.0954 | – | – | 0.793 | – | – | 0.981 | 0.883
